# Reference: US9586961B2, “Homopiperazine derivatives as protein tyrosine kinase inhibitors and pharmaceutical use thereof” (LEO PHARMA A/S, priority 2010, dated 2017)
# Experiments:
# Type in all cases: biochemical
# [1] = biological target: T1, JAK3 (Homo sapiens, UniProt P52333); experiment: JAK3 kinase assay (HTRF, inhibition of phosphorylation of a synthetic peptide); settings: catalytic domain, His-tag; 2 μM ATP (Km); read-out: JAK3 kinase inhibitory activity (EC50)
# T1 construct: All four purified enzymes contain only the catalytic domain; His (N); purchased Carna Biosciences, Inc; host or cells: baculovirus expression system
# T1 sequence (P52333 822-1111 limits assumed): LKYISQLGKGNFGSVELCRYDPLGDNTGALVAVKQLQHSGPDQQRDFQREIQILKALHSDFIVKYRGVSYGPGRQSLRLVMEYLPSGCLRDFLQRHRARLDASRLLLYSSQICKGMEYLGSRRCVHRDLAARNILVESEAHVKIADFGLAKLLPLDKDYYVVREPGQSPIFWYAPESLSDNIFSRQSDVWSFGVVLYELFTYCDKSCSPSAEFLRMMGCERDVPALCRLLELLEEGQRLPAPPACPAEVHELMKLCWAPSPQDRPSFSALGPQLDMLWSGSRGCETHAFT
# Method in brief: (§1)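 HTRF detection (streptavidin-XL665, cryptate anti-phospho antibody, overnight in the dark) after EDTA stop of a 20-30 min RT reaction on 1 μM TK substrate-biotin. Km-level ATP per kinase: 7 μM for JAK1 and 13 μM for TYK2, both N-terminal GST, with 50 nM SEB; 4 μM for JAK2 and 2 μM for JAK3, both His-tagged. Catalytic domains only; DMSO 0.75%.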
# [2] = biological target: T2, TYK2 (Homo sapiens, UniProt P29597); experiment: TYK2 kinase assay (HTRF, inhibition of phosphorylation of a synthetic peptide); settings: catalytic domain aa 871-1187, GST-tag; 13 μM ATP (Km); read-out: TYK2 kinase inhibitory activity (EC50)
# T2 construct: JAK1 (aa 850-1154) and TYK2 (aa 871-1187) are expressed with an N-terminally fused GST-tag; GST (N); purchased Carna Biosciences, Inc; host or cells: baculovirus expression system
# T2 sequence (P29597 871-1187): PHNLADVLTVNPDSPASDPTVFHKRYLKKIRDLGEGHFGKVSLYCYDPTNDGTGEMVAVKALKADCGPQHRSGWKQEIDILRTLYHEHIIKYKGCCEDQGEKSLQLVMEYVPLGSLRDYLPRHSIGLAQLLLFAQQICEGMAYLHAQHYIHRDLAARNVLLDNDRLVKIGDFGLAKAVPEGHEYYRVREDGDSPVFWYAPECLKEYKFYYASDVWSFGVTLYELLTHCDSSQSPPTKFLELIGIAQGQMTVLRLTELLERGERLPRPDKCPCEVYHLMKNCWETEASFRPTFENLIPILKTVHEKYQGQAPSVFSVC
# Method in brief: as §1
# [3] = biological target: T3, JAK2 (Homo sapiens, UniProt O60674); experiment: JAK2 kinase assay (HTRF, inhibition of phosphorylation of a synthetic peptide); settings: catalytic domain, His-tag; 4 μM ATP (Km); read-out: JAK2 kinase inhibitory activity (EC50)
# T3 construct: All four purified enzymes contain only the catalytic domain; His (N); purchased Carna Biosciences, Inc; host or cells: baculovirus expression system
# T3 sequence (O60674 849-1124 limits assumed): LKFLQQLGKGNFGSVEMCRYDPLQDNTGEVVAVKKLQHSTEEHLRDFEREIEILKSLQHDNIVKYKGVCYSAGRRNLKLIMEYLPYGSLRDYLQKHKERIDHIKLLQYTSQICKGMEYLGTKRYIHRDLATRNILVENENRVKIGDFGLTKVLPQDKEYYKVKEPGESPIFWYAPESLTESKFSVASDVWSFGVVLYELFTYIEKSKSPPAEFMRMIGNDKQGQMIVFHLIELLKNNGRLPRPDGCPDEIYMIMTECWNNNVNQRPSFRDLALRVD
# Method in brief: as §1
# [4] = biological target: T4, JAK1 (Homo sapiens, UniProt P23458); experiment: JAK1 kinase assay (HTRF, inhibition of phosphorylation of a synthetic peptide); settings: catalytic domain aa 850-1154, GST-tag; 7 μM ATP (Km); read-out: JAK1 kinase inhibitory activity (EC50)
# T4 construct: JAK1 (aa 850-1154) and TYK2 (aa 871-1187) are expressed with an N-terminally fused GST-tag; GST (N); purchased Carna Biosciences, Inc; host or cells: baculovirus expression system
# T4 sequence (P23458 850-1154): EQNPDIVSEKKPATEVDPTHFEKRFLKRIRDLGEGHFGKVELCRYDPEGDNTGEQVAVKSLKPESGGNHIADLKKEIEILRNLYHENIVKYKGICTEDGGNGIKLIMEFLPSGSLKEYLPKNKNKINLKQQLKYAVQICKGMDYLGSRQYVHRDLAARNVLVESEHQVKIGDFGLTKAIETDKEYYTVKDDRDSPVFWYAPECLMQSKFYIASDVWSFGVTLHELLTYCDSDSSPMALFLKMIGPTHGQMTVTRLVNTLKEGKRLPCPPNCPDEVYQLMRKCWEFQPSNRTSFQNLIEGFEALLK
# Method in brief: as §1
Structure (SMILES),EC50 [1] [nM],EC50 [2] [nM],EC50 [3] [nM],EC50 [4] [nM]
"NS(=O)(=O)c1ccc2[nH]c(C(=O)N3CCN(c4ncnc5[nH]ccc45)CC4(CC4)C3)cc2c1 [Example 101, 2-[5-(7H-pyrrolo[2,3-d]pyrimidin-4-yl)-5,8-diazaspiro[2.6]nonane-8-carbonyl]-1H-indole-5-sulfonamide]",100 to 1000,100 to 1000,< 100,< 100
"CN(C1CCCCC1)S(=O)(=O)N1CCN(c2ncnc3[nH]ccc23)CC2(CC2)C1 [Example 105, N-cyclohexyl-N-methyl-5-(7H-pyrrolo[2,3-d]pyrimidin-4-yl)-5,8-diazaspiro[2.6]nonane-8-sulfonamide]",> 1000,> 1000,100 to 1000,100 to 1000
"N#Cc1ccc(OCC(=O)N2CCN(c3ncnc4[nH]ccc34)CC3(CC3)C2)cc1 [Example 106, 4-[2-oxo-2-[5-(7H-pyrrolo[2,3-d]pyrimidin-4-yl)-5,8-diazaspiro[2.6]nonan-8-yl]ethoxy]benzonitrile]",100 to 1000,100 to 1000,< 100,< 100
"c1ccc(CN2CCN(c3ncnc4[nH]ccc34)CC3(CC3)C2)cc1 [Example 107, 4-(5-benzyl-5,8-diazaspiro[2.6]nonan-8-yl)-7H-pyrrolo[2,3-d]pyrimidine]",> 1000,> 1000,> 1000,> 1000
"N#Cc1csc(C(=O)N2CCCN(c3ncnc4[nH]ccc34)CC23CC3)c1 [Example 119, 5-[5-(7H-pyrrolo[2,3-d]pyrimidin-4-yl)-5,9-diazaspiro[2.6]nonane-9-carbonyl]thiophene-3-carbonitrile]",100 to 1000,100 to 1000,< 100,< 100
"N#Cc1ccc(C(=O)N2CCCN(c3ncnc4[nH]ccc34)CC23CC3)s1 [Example 120, 5-[5-(7H-pyrrolo[2,3-d]pyrimidin-4-yl)-5,9-diazaspiro[2.6]nonane-9-carbonyl]thiophene-2-carbonitrile]",< 100,100 to 1000,< 100,< 100
"O=C(Cc1ccc(Cl)cc1)N1CCN(c2ncnc3[nH]ccc23)CC2(CC2)C1 [Example 125, 2-(4-chlorophenyl)-1-[5-(7H-pyrrolo[2,3-d]pyrimidin-4-yl)-5,8-diazaspiro[2.6]nonan-8-yl]ethanone]",100 to 1000,100 to 1000,< 100,< 100
"O=C(c1csnn1)N1CCCN(c2ncnc3[nH]ccc23)CC12CC2 [Example 142, [5-(7H-pyrrolo[2,3-d]pyrimidin-4-yl)-5,9-diazaspiro[2.6]nonan-9-yl]-(thiadiazol-4-yl)methanone]",100 to 1000,100 to 1000,< 100,< 100
"O=C(c1ccon1)N1CCCN(c2ncnc3[nH]ccc23)CC12CC2 [Example 153, isoxazol-3-yl-[5-(7H-pyrrolo[2,3-d]pyrimidin-4-yl)-5,9-diazaspiro[2.6]nonan-9-yl]methanone]",100 to 1000,100 to 1000,< 100,< 100
"O=C(c1ccsn1)N1CCCN(c2ncnc3[nH]ccc23)CC12CC2 [Example 201, isothiazol-3-yl-[5-(7H-pyrrolo[2,3-d]pyrimidin-4-yl)-5,9-diazaspiro[2.6]nonan-9-yl]methanone]",100 to 1000,100 to 1000,< 100,< 100
"N#Cc1c[nH]c(C(=O)N2CCCN(c3ncnc4[nH]ccc34)CC23CC3)c1 [Example 209, 5-[5-(7H-pyrrolo[2,3-d]pyrimidin-4-yl)-5,9-diazaspiro[2.6]nonane-9-carbonyl]-1H-pyrrole-3-carbonitrile]",< 100,< 100,< 100,< 100
"N#Cc1ccc(C(=O)N2CCCN(c3ncnc4[nH]ccc34)CC23CC3)o1 [Example 258, 5-[5-(7H-pyrrolo[2,3-d]pyrimidin-4-yl)-5,9-diazaspiro[2.6]nonane-9-carbonyl]furan-2-carbonitrile]",100 to 1000,100 to 1000,< 100,< 100
"O=C(Cc1ccc(Br)cc1)N1CCN(c2ncnc3[nH]ccc23)CC2(CC2)C1 [Example 264, 2-(4-bromophenyl)-1-[5-(7H-pyrrolo[2,3-d]pyrimidin-4-yl)-5,8-diazaspiro[2.6]nonan-8-yl]ethanone]",< 100,100 to 1000,< 100,< 100

# The remaining lines, values ahead:
EC50 [1] [nM],EC50 [2] [nM],EC50 [3] [nM],EC50 [4] [nM],Structure (SMILES)
> 1000,> 1000,> 1000,> 1000,"CC1CN(c2ncnc3[nH]ccc23)CC2(CC2)CN1C(=O)Nc1ccccc1 (centres unmarked) [Example 99, 7-methyl-N-phenyl-5-(7H-pyrrolo[2,3-d]pyrimidin-4-yl)-5,8-diazaspiro[2.6]nonane-8-carboxamide]"
> 1000,> 1000,< 100,< 100,"N#Cc1ccc(C(=O)C(=O)N2CCN(c3ncnc4[nH]ccc34)CC3(CC3)C2)cc1 [Example 100, 4-[2-oxo-2-[5-(7H-pyrrolo[2,3-d]pyrimidin-4-yl)-5,8-diazaspiro[2.6]nonan-8-yl]acetyl]benzonitrile]"
100 to 1000,> 1000,100 to 1000,100 to 1000,"CS(=O)(=O)Nc1ccc(C(=O)N2CCN(c3ncnc4[nH]ccc34)CC3(CC3)C2)cc1 [Example 102, N-[4-[5-(7H-pyrrolo[2,3-d]pyrimidin-4-yl)-5,8-diazaspiro[2.6]nonane-8-carbonyl]phenyl]methanesulfonamide]"
> 1000,> 1000,100 to 1000,100 to 1000,"CN(CCC#N)S(=O)(=O)N1CCN(c2ncnc3[nH]ccc23)CC2(CC2)C1 [Example 103, N-(2-cyanoethyl)-N-methyl-5-(7H-pyrrolo[2,3-d]pyrimidin-4-yl)-5,8-diazaspiro[2.6]nonane-8-sulfonamide]"
> 1000,> 1000,100 to 1000,> 1000,"CCN(CC)S(=O)(=O)N1CCN(c2ncnc3[nH]ccc23)CC2(CC2)C1 [Example 104, N,N-diethyl-5-(7H-pyrrolo[2,3-d]pyrimidin-4-yl)-5,8-diazaspiro[2.6]nonane-8-sulfonamide]"
< 100,100 to 1000,< 100,< 100,"N#Cc1ccc(CCC(=O)N2CCN(c3ncnc4[nH]ccc34)CC3(CC3)C2)cc1 [Example 115, 4-[3-oxo-3-[5-(7H-pyrrolo[2,3-d]pyrimidin-4-yl)-5,8-diazaspiro[2.6]nonan-8-yl]propyl]benzonitrile]"
100 to 1000,> 1000,< 100,100 to 1000,"N#Cc1cccc(CCC(=O)N2CCN(c3ncnc4[nH]ccc34)CC3(CC3)C2)c1 [Example 116, 3-[3-oxo-3-[5-(7H-pyrrolo[2,3-d]pyrimidin-4-yl)-5,8-diazaspiro[2.6]nonan-8-yl]propyl]benzonitrile]"
100 to 1000,100 to 1000,< 100,< 100,Cc1cc(C(=O)N2CCCN(c3ncnc4[nH]ccc34)CC23CC3)no1 [Example 141]
100 to 1000,100 to 1000,< 100,< 100,"O=C(Cc1ccc(F)cc1)N1CCN(c2ncnc3[nH]ccc23)CC2(CC2)C1 [Example 158, 2-(4-fluorophenyl)-1-[5-(7H-pyrrolo[2,3-d]pyrimidin-4-yl)-5,8-diazaspiro[2.6]nonan-8-yl]ethanone]"
100 to 1000,100 to 1000,< 100,< 100,"O=C(c1cnsn1)N1CCCN(c2ncnc3[nH]ccc23)CC12CC2 [Example 203, [5-(7H-pyrrolo[2,3-d]pyrimidin-4-yl)-5,9-diazaspiro[2.6]nonan-9-yl]-(1,2,5-thiadiazol-3-yl)methanone]"
100 to 1000,100 to 1000,< 100,< 100,"O=C(c1ccc[nH]1)N1CCCN(c2ncnc3[nH]ccc23)CC12CC2 [Example 255, [5-(7H-pyrrolo[2,3-d]pyrimidin-4-yl)-5,9-diazaspiro[2.6]nonan-9-yl]-(1H-pyrrol-2-yl)methanone]"
< 100,100 to 1000,< 100,< 100,"Nc1nonc1C(=O)N1CCCN(c2ncnc3[nH]ccc23)CC12CC2 [Example 256, (4-amino-1,2,5-oxadiazol-3-yl)-[5-(7H-pyrrolo[2,3-d]pyrimidin-4-yl)-5,9-diazaspiro[2.6]nonan-9-yl]methanone]"
100 to 1000,100 to 1000,< 100,< 100,Cc1ccc(CC(=O)N2CCN(c3ncnc4[nH]ccc34)CC3(CC3)C2)cc1 [Example 263]
